This passage reports inhibition results from PMC7736581, “Activation of the IRE1 RNase through remodeling of the kinase front pocket by ATP-competitive ligands” (Nature Communications, 2020).

Among the targets are Lck (Homo sapiens, UniProt P06239); EphA7 (Homo sapiens, UniProt Q15375); RAF1(Y340D,Y341D) (Homo sapiens, UniProt P04049, Y340D/Y341D); CDK2/cyclinA (Homo sapiens, UniProt P24941); ROCK1 (Homo sapiens, UniProt Q13464); Fgr (Homo sapiens, UniProt P09769); SLK (Homo sapiens, UniProt Q9H2G2).
Common to all, as to assay: biochemical
What all share (set-up): Invitrogen kinase panel: Z'Lyte activity (ATP at Km) or LanthaScreen competitive ATP-site binding, percent inhibition
(In general: Time-resolved FRET reads energy transfer from a long-lived donor to a nearby acceptor.)

The target in a further experiment is T1, Abl (Homo sapiens, UniProt P00519).
T1 construct: gene ABL1

The target in a further experiment is T2, B-Raf (Homo sapiens, UniProt P15056).
T2 construct: gene BRAF

For a further experiment, the target named is T3, MLK1 (Homo sapiens, UniProt P80192).
T3 construct: gene MAP3K9

A further experiment concerns the target T4, CHK2 (Homo sapiens, UniProt O96017).
T4 construct: gene CHEK2

The next experiment concerns the target T5, JNK2 (Homo sapiens, UniProt P45984).
T5 construct: gene MAPK9

A further experiment has as its target T6, Flt3 (Homo sapiens, UniProt P36888).
T6 sequence (P36888 1-993): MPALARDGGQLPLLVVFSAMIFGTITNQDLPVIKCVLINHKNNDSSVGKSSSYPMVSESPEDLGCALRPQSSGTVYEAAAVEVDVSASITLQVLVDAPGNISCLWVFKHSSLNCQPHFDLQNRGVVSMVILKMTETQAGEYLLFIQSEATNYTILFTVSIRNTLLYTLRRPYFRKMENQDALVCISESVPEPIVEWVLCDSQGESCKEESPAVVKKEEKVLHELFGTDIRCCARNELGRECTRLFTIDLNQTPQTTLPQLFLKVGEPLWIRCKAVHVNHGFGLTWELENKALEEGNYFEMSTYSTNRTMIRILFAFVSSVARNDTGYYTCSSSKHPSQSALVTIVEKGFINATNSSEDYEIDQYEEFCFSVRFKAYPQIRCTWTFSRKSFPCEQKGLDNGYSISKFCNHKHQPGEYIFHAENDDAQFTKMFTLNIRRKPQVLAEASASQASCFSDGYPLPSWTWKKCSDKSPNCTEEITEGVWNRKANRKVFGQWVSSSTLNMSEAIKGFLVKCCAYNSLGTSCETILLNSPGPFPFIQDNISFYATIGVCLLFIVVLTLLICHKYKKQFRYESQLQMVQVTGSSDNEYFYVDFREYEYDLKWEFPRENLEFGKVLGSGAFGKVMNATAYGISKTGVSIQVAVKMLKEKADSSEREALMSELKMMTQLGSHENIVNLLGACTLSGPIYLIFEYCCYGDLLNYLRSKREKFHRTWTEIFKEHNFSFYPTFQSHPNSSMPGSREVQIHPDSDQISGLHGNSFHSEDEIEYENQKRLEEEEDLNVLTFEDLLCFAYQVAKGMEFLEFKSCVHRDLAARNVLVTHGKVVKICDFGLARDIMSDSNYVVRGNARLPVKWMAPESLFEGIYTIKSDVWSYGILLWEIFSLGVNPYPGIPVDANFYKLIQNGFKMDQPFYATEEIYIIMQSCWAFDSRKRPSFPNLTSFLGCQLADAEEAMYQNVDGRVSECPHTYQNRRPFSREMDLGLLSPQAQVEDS

For another experiment, the target named is T7, PKA (Homo sapiens, UniProt P17612).
T7 construct: gene PRKACA

The target of the next experiment is T8, ERK2 (Homo sapiens, UniProt P28482).
T8 construct: gene MAPK1

The target of a further experiment is T9, PKC_beta1 (Homo sapiens, UniProt P05771).
T9 construct: gene PRKCB; isoform beta1

Another experiment has as its target T10, p70S6K (Homo sapiens, UniProt P23443).
T10 construct: gene RPS6KB1

In general, inhibition refers to the drop in the measured response relative to a control, in per cent.

T1 sequence (P00519 whole entry): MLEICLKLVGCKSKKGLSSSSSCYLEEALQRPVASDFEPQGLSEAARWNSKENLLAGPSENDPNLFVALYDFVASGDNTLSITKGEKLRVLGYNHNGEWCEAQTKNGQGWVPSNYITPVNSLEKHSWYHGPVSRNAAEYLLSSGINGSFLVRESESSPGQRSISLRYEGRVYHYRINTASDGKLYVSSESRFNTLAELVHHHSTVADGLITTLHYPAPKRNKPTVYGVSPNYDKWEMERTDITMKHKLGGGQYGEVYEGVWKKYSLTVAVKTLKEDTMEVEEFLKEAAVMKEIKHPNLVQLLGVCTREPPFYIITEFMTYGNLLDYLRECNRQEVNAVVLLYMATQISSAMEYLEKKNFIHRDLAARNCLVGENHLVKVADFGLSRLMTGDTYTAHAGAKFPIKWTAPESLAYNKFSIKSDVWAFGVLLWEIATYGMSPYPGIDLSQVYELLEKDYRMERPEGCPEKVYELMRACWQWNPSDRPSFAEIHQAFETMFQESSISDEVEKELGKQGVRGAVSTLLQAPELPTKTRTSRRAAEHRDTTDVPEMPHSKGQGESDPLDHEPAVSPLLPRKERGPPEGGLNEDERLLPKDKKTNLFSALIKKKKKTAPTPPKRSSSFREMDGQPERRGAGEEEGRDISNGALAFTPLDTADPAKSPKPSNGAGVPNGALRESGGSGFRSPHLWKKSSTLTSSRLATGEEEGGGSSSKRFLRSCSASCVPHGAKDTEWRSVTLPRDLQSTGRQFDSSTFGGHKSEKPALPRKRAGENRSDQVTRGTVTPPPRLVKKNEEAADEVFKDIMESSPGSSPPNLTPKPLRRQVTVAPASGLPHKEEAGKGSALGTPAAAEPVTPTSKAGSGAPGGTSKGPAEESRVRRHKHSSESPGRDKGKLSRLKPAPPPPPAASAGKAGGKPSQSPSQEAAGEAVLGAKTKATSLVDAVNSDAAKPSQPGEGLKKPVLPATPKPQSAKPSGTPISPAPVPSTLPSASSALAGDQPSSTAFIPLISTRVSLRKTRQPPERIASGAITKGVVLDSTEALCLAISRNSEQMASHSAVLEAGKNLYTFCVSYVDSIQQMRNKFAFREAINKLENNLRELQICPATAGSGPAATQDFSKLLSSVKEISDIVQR
Chain of EphA7 (Q15375 whole entry): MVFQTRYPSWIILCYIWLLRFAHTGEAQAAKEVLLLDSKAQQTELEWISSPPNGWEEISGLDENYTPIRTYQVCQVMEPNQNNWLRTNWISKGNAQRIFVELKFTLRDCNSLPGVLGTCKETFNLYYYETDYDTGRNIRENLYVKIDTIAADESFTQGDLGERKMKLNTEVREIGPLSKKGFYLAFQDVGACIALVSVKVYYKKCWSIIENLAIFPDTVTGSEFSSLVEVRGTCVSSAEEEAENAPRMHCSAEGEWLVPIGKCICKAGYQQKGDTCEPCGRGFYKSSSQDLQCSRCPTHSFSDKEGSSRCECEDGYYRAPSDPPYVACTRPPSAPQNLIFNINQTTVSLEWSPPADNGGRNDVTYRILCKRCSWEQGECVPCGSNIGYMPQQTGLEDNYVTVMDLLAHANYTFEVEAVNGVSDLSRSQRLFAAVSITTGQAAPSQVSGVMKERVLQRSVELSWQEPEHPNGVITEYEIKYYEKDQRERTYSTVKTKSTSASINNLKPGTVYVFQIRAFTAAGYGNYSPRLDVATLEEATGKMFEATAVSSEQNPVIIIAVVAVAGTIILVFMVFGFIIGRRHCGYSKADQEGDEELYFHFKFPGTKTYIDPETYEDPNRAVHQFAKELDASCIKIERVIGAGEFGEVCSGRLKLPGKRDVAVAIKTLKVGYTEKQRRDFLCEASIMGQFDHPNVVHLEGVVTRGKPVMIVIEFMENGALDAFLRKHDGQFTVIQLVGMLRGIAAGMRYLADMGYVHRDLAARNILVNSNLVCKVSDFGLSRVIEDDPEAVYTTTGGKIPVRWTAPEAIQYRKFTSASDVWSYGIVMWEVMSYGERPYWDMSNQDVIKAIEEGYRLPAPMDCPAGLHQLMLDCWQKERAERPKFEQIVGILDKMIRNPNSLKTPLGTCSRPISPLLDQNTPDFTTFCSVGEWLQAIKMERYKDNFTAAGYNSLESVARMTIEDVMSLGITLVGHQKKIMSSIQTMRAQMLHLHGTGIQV
Chain of SLK (Q9H2G2 whole entry): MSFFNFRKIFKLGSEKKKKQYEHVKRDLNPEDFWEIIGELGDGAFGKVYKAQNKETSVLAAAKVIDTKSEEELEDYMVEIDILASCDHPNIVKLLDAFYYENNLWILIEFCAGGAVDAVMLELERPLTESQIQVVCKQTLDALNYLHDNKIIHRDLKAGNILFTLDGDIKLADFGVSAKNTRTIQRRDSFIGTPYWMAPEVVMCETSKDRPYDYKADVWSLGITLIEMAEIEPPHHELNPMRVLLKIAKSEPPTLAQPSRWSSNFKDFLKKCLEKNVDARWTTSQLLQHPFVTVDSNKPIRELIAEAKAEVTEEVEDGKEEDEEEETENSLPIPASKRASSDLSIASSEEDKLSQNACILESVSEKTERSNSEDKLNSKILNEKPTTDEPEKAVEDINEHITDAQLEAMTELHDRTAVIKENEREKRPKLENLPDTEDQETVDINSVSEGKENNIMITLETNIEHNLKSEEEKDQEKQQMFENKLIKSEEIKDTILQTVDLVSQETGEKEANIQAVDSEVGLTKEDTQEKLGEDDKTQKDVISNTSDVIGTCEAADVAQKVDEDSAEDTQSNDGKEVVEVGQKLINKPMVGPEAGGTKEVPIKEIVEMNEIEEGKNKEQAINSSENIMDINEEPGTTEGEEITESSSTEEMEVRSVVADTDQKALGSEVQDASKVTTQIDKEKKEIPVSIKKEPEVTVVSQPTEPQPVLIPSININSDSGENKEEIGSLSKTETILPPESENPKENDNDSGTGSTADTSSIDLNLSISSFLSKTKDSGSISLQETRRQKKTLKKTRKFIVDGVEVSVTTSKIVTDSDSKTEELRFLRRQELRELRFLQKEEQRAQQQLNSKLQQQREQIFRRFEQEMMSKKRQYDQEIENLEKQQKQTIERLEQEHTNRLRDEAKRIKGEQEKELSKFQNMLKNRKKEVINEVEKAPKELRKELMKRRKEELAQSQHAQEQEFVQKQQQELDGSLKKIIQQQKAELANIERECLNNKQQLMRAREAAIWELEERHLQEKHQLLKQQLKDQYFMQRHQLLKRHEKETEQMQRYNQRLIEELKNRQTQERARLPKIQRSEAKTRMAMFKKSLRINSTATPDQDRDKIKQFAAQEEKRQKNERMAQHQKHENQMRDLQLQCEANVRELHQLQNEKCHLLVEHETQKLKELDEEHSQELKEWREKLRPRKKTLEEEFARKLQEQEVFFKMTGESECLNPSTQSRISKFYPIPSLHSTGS
T10 sequence (P23443 whole entry): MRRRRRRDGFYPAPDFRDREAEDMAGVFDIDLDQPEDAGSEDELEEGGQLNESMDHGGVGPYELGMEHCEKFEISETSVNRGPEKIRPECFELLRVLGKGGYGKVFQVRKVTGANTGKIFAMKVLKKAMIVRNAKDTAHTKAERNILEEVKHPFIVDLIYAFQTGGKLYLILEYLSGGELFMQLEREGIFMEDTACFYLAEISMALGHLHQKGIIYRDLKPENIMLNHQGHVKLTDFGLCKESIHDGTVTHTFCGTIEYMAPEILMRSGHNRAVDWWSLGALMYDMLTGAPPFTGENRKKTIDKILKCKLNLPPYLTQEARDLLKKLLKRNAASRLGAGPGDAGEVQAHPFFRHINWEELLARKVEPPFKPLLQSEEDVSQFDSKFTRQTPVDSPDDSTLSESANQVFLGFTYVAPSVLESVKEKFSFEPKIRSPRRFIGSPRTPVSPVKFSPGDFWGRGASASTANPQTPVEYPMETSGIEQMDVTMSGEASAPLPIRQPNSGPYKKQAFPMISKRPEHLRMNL
T8 sequence (P28482 whole entry): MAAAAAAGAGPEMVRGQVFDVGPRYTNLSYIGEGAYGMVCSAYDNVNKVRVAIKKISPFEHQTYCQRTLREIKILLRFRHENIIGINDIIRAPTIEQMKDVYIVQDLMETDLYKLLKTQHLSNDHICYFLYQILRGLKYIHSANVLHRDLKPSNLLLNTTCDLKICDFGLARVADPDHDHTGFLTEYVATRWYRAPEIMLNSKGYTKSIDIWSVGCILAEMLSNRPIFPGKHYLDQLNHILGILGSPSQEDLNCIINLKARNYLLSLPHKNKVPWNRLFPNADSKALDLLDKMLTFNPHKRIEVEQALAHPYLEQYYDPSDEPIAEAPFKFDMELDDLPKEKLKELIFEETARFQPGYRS
T2 sequence (P15056 whole entry): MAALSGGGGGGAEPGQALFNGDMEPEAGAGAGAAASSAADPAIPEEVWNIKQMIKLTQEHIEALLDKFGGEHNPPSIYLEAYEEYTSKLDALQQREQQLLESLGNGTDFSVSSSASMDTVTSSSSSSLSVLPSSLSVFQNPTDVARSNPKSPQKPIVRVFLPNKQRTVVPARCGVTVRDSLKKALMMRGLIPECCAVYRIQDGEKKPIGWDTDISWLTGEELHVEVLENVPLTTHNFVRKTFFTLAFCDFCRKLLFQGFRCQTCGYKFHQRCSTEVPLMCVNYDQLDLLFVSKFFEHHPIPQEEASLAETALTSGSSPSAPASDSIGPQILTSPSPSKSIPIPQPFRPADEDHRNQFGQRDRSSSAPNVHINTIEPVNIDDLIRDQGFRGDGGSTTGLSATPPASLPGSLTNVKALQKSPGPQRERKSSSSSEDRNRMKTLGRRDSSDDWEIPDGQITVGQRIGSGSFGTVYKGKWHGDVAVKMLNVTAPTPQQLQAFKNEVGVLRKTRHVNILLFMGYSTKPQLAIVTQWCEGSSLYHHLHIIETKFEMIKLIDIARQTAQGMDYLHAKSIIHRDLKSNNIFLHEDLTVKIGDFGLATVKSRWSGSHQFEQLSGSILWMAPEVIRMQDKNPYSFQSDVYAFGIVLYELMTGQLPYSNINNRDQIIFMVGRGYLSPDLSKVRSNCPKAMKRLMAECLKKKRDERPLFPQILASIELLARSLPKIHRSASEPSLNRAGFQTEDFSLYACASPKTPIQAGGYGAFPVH

Take `O=c1cc(-c2n[nH]c3ncc(-c4c(F)cccc4F)cc23)nc(N2CCC(O)CC2)[nH]1` [G-9807]: the inhibition at 1 µM on Abl worked out at 94.4%; on B-Raf, 81.2%; on MLK1, 98.1%; on Lck, 87.2%; at EphA7 it was 84.2%; at RAF1(Y340D,Y341D), 43.3%. Also, the inhibition at 1 µM on CHK2 amounted to 95%; on JNK2, 91.3%; on Flt3, 98.2%; at CDK2/cyclinA it was 100%; on PKA, 43%; on ROCK1, 94.6%. Further, the inhibition at 1 µM was 78.3% at ERK2; 77.1% on Fgr; 66.7% on PKC_beta1; 96.9% on SLK; 88.7% at p70S6K.

On to `CC#CC(=O)Nc1cccc2c(Oc3ncccc3-c3ccnc(N[C@H]4CCCNC4)n3)c(C)ccc12` [G-7658], for which the inhibition at 1 µM on Abl was -1.5%; at B-Raf, 5.5%; on MLK1 it was -2.5%; at Lck, -28.5%; at EphA7, -1%; on RAF1(Y340D,Y341D), 1%. In addition, the inhibition at 1 µM on CHK2 is 8%; on JNK2, 72%; on Flt3, 16.5%; on CDK2/cyclinA, 6%; on PKA, -8%; at ROCK1, 0.5%. The inhibition at 1 µM at ERK2 is 2%; at Fgr, 6%; on PKC_beta1 it was 5.5%; at SLK, 1.5%; at p70S6K it was -1%.

`CCOC(=O)Nc1cccc2c(Oc3ncccc3-c3ccnc(N[C@H]4CCCNC4)n3)c(C)ccc12` [G-1749]: the inhibition at 1 µM on Abl was -7.5%; at B-Raf, 9.5%; at MLK1, -8.5%; on Lck it was 13.5%; at EphA7 it was 9.5%; on RAF1(Y340D,Y341D) it was 24.5%. The inhibition at 1 µM on CHK2 is 12%; on JNK2, 79%; at Flt3 it was 8%; on CDK2/cyclinA, 6.5%; at PKA, -9%; on ROCK1, 3.5%. Also, the inhibition at 1 µM at ERK2 worked out at 6%; at Fgr, 1.5%; at PKC_beta1, 5.5%; at SLK it was 10%; on p70S6K, 2.5%.
